Test results taken from US10753941B2, “Biocompatible nanoparticles with aggregation induced emission characteristics as fluorescent bioprobes and methods of using the same for in vitro and in vivo imaging” (The Hong Kong University of Science and Technology, priority 2011, dated 2020).
Like-named read-outs stand apart in the source and are kept apart here. Residues, ends and D or L forms follow the SMILES beside them. *: point of attachment. X1 = O=C(CCCc1cn(Cc2ccc(C(=C(c3ccccc3)c3ccccc3)c3ccccc3)cc2)nn1)*

What was measured:
[1] = tested on: HeLa cells; test: Apoptosis imaging in live cells with AcDEVDK-TPE; type: cell-based, human; conditions: 5 μM probe
Protocol: The cells were cultured in the chambers (LAB-TEK, Chambered Coverglass System) at 37° C., respectively. After 80% confluence, the adherent cells were washed twice with 1×PBS buffer. The AcDEVD-TPE solution (5 μM, 0.3 mL) was then added to the chamber. After incubation for 2 h at 37° C., cells were washed two times with 1×PBS buffer. To induce apoptosis, cells were incubated with 1.0 μM of staurosporine for 1 hr and then imaged immediately by confocal laser scanning microscope (CLSM, Zeiss LSM 410, Jena, Germany) with imaging software (Fluoview FV500). The images are analyzed by ImageJ 1.43× program (developed by NIH).

[2] = tested on: BSA, HSA, Lysozyme, Pepsin and Trypsin; test: Selectivity of AcDEVDK-TPE against other proteins; type: biochemical; conditions: 20 μg mL^−1 protein, 5 μM probe
Protocol: AcDEVDK-TPE was treated with five other enzymes which are widely present in cells, such as BSA, HSA, Lysozyme, Pepsin and Trypsin under the same conditions.

[3] = molecular target: T1, caspase-3 (Homo sapiens, UniProt P42574); test: Caspase turn-on assay of AcDEVDK-TPE; type: biochemical
T1 construct: purchased R&D Systems
T1 sequence (P42574 29-175 limits assumed): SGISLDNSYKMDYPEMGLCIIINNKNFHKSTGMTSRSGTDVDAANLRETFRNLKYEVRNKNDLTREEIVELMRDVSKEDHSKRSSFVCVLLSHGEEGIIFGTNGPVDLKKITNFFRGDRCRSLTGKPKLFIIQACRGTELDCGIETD
T1 sequence (P42574 176-277 limits assumed): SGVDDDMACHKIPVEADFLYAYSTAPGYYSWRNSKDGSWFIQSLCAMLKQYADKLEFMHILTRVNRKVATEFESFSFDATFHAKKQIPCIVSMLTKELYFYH
Text: (§1) Cleavage of the peptide substrates AcDEVDK-TPE by caspase-3 or caspase-7 was monitored in quartz cells or in black flatbottom polypropylene 384-well plates (Nunc, USA). The corresponding concentrations of substrate and enzymes were used for each assay. Enzymatic cleavage of the substrates was monitored by fluorescence increase (excitation and emission wavelengths at 312 nm and 480 nm respectively) with on a Perkin-Elmer LS 55 spectrofluorometer or a Synergy TM 2 multi-mode microplate reader (Biotek Instruments).

[4] = molecular target: T2, caspase-7 (Homo sapiens, UniProt P55210); test: Caspase turn-on assay of AcDEVDK-TPE; type: biochemical
T2 construct: purchased R&D Systems
T2 sequence (P55210 24-198 limits assumed): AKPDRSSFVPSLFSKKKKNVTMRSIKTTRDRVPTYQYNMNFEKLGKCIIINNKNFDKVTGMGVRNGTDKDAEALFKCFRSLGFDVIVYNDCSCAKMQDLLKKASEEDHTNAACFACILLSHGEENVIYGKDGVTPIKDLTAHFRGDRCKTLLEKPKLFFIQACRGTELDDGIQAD
T2 sequence (P55210 207-303 limits assumed): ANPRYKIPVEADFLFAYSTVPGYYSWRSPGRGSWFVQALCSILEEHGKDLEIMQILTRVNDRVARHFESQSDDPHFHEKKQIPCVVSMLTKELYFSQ
Text: as §1

[5] = Water solubility / aggregation of probes in water (LLS, PL); type: physicochemical; conditions: for average diameter of nanoaggregates in water (LLS): DMSO/water v/v=1:199, 10 μM
Text: FIG. 32A illustrates the UV-vis absorption spectra of BATPS (5) and TPS-2cRGD. Both have a similar absorption profile with the maximum at 356 nm. The corresponding photoluminescence (PL) spectra are shown in FIG. 32B, along with the photographs taken under UV irradiation. It is known that AIE fluorogens are virtually non-fluorescent in good solvents but emit intensely when aggregated in poor solvents.
It is well known that AIE dye is virtually non-luminescent in good solvents but emits intensely when aggregated in its poor solvents. […] The excited states are readily annihilated by the intramolecular rotations of phenyl rings. Therefore, very low fluorescence was observed.

[6] = tested on: MCF-7 cancer cells; test: Long term cellular tracking with two-photon fluorescence imaging; type: cell-based; conditions: 1 μM, 4 h incubation; FTNPs two-photon 800 nm, MTR one-photon 560 nm
Protocol: The performance of FTNPs in MCF-7 cancer cell tracking was investigated and compared with that of commercial Mitotracker red (MTR).
MCF-7 breast cancer cells were cultured in Dulbecco's Modified Eagle Medium (DMEM) containing 10% fetal bovine serum and 1% penicillin streptomycin at 37° C. in a humidified environment containing 5% CO2.
Prior to the experiment, MCF-7 breast cancer cells were pre-cultured until confluence was reached. After incubation with FTNPs and Mitotracker red (MTR) in DMEM medium (FBS-free) at 1 μM T1 and MTR for 4 h at 37° C., respectively, the corresponding cells were detached by 1× tripsin and suspended in culture medium with different cell densities. The cells were then cultured on round coverslip in 35 mm petri dishes for 0, 1, 2, 3, 4 and 5 days, respectively. After designated time intervals, the medium was removed and the adherent cells were washed twice with 1×PBS buffer, followed by fixation using 75% ethanol for 20 minutes. The cells were further washed twice with 1×PBS buffer and the coverslips were then mounted on glass slides using mounting medium in purpose of long-term storage. […] The detection of two-photon excited fluorescence of FTNPs was achieved by excitation at 800 nm with a 600-800 nm bandpass filter. On the other hand, the one-photon excited fluorescence signal from MTR was collected with a 600-800 nm bandpass filter upon 560 nm excitation.

[7] = molecular target: T3, human integrin αvβ3 (Homo sapiens, UniProt P05106+P06756); test: Titration of TPS-2cRGD with integrin (fluorescence turn-on); type: binding
T3 construct: purchased ImmunoCell
Protocol: (§2) 5 μL of the protein stock solution was diluted with 40 μL of 1×PBS buffer (pH 7.4). 5 μL of TPS-2cRGD (10 μM) was then added and the reaction mixture was incubated at room temperature for 30 min. The reaction mixture was then diluted to a total of 300 μL with deionized water for photoluminescence measurement. The solution was excited at 356 nm, and the emission was collected from 380 to 650 nm.

[8] = MTT cytotoxicity of TPS-2cRGD; type: cell-based; conditions: human, HT-29 cancer cells; 2, 5 and 10 μM for 12, 24 and 48 h; read-out: metabolic viability
Protocol: Methylthiazolyldiphenyl-tetrazolium (MTT) assays were used to assess the metabolic activity of HT-29 cancer cells to study the cytotoxicity of TPS-2cRGD. HT-29 cells were seeded in 96-well plates (Costar, Ill., USA) at an intensity of 4×10^4 cells mL^−1. After 24 h incubation, the medium was replaced by the TPS-2cRGD suspension at concentrations of 2, 5, and 10 μM, and the cells were then incubated for 12, 24 and 48 h, respectively. After the designated time intervals, the wells were washed twice with 1×PBS buffer and 100 μL of freshly prepared MTT (0.5 mg mL^−1) solution in culture medium was added into each well. The MTT medium solution was carefully removed after 3 h incubation in the incubator at 37° C. DMSO (100 μL) was then added into each well and the plate was gently shaken to dissolve all the precipitates formed. The absorbance of MTT at 570 nm was monitored by the microplate reader (Genios Tecan). Cell viability was expressed by the ratio of absorbance of the cells incubated with TPS-2cRGD suspension to that of the cells incubated with culture medium only.

[9] = tested on: lysozyme, papain, trypsin and BSA; test: Titration of TPS-2cRGD with other proteins (selectivity); type: binding; conditions: 100 μg mL^−1 protein
Protocol: as §2

[10] = tested on: HT-29 cells; test: Real-time uptake imaging of TPS-2cRGD; type: cell-based; conditions: 2 μM, room temperature
Protocol: HT-29 cells were cultured in the 8-wells chambers (LAB-TEK, Chambered Coverglass System) at 37° C. After 80% confluence, the adherent cells were washed twice with 1×PBS buffer. The TPS-2cRGD solution (2 μM, 0.3 mL) and a small amount of membrane tracker were then added to the chamber. The chambers were placed on the microscope platform immediately and the microscope focused on a collection of cells. The fluorescence images (405 nm excitation and with a band pass 505-525 nm filter for the probe, and 543 nm excitation with a band pass 575-635 nm filter for the membrane tracker) acquired every 5 min.

[11] = tested on: HT-29 colon cancer cells with overexpressed integrin αvβ3; test: Confocal imaging at 4° C. with TPS-2cRGD; type: cell-based
Protocol: (§3) Before the detection of integrin αvβ3, HT-29 and MCF-7 cells were cultured in the chambers (LAB-TEK, Chambered Coverglass System) at 37° C., respectively. After 80% confluence, the adherent cells were washed twice with 1×PBS buffer. The TPS-2cRGD solution (2 μM, 0.3 mL) was then added to the chamber. After incubation for 30 min at 4° C., cells were washed two times with 1×PBS buffer and then treated with membrane tracker for 10 min and further washed twice with 1×PBS buffer. The cells were then imaged immediately by confocal laser scanning microscope (CLSM, Zeiss LSM 410, Jena, Germany) with imaging software (Fluoview FV500). The images are analyzed by ImageJ 1.43× program (developed by NIH). The images were taken upon excitation at 405 nm (5% laser power) with a band pass 505-525 nm filter for the probe, and 543 nm (5% laser power) with a band pass 575-635 nm filter for the membrane tracker.

[12] = tested on: MCF7 breast cancer cells with low integrin αvβ3 expression; test: Confocal imaging at 4° C. with TPS-2cRGD; type: cell-based; conditions: 2 μM, 30 min
Protocol: as §3

[13] = molecular target: T1, caspase-3; test: Caspase-3 turn-on and hydrolysis of E/Z-TPE-2DEVD; type: biochemical
Protocol: Both have a similar absorption profile with an obvious absorbance in the 270-380 nm range.
The enzyme kinetic studies by incubating recombinant caspase-3 with E/Z-TPE-2DEVD in buffer at 37° C. were subsequently performed, and the changes in probe hydrolysis were monitored with HPLC. DMSO stock solutions of TPE-2DEVD were diluted with caspase-3assay buffer (50 mM PIPES, 100 mM NaCl, 1 mM EDTA, 0.1% w/v CHAPS, 25% w/v sucrose, pH=7.2) to make 10 μM working solutions. 5 μL of the recombinant caspase-3 (˜0.04 μg/μL stock solution in assay buffer) was added into the above working solution. The reaction mixture was incubated at room temperature for 60 min and was then diluted to a total of 300 μL with deionized water for photoluminescence measurement. The solution was excited at 312 nm, and the emission was collected from 360 to 600 nm.

[14] = inferred from weak fluorescence / LLS

T3 sequence (P06756 31-1048): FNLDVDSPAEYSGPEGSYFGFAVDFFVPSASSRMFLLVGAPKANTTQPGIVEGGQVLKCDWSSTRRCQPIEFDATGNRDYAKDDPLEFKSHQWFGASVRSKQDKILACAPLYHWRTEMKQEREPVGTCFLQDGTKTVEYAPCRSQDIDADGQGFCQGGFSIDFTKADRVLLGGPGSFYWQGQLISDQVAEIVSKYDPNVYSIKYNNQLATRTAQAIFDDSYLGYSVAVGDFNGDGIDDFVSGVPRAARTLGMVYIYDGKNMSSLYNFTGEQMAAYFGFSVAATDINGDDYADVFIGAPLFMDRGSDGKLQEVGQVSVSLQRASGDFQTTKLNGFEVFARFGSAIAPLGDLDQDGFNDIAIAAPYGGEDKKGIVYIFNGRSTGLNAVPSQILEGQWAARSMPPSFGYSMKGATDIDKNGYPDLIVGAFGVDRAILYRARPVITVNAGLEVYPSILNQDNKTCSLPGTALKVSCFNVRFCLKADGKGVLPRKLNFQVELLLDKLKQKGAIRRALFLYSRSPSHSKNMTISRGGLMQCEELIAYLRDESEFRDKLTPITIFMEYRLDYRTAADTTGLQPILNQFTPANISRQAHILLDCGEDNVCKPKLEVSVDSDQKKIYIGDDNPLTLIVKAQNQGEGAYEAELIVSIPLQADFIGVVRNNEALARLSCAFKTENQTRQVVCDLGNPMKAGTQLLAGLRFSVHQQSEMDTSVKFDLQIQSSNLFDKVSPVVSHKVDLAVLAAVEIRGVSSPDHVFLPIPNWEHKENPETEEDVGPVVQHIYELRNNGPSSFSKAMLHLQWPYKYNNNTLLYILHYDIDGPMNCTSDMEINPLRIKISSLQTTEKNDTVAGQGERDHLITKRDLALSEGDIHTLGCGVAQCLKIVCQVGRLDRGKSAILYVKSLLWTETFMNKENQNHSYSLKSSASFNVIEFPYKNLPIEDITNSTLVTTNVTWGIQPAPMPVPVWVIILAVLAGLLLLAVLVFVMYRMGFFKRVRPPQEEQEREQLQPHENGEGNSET
T3 sequence (P05106 27-788): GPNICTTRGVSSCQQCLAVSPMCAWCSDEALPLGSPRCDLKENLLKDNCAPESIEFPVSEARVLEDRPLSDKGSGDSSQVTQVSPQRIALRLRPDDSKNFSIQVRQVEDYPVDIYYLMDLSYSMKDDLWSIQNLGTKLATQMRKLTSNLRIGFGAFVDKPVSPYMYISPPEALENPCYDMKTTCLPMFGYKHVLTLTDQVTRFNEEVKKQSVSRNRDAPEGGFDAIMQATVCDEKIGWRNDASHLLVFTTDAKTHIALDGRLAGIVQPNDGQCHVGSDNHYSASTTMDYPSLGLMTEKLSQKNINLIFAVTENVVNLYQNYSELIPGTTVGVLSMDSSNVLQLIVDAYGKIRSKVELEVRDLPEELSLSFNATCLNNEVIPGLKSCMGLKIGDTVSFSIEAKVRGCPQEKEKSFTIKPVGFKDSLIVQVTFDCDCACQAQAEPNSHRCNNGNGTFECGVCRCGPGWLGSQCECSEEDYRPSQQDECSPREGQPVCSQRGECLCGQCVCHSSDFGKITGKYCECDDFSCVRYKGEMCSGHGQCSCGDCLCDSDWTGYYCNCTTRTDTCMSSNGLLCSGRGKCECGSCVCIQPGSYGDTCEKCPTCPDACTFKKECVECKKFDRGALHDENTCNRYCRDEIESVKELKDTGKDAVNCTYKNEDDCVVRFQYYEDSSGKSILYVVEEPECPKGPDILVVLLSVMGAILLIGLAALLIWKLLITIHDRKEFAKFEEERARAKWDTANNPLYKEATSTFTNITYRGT

CC(=O)N[C@@H](CC(=O)O)C(=O)N[C@@H](CCC(=O)O)C(=O)N[C@H](C(=O)N[C@@H](CC(=O)O)C(=O)N[C@@H](CCCCNC(=O)CCCc1cn(Cc2ccc(C(=C(c3ccccc3)c3ccccc3)c3ccccc3)cc2)nn1)C(N)=O)C(C)C [AcDEVDK-TPE] (Ac-DEVDK(X1)-NH2)
fluorescence in nonapoptotic cells [1]: very weak green fluorescence
fluorescence in apoptotic cells ([1]; apoptosis induced with staurosporine): strong green fluorescence
change of PL intensity with other proteins [2]: very little change of PL intensity
fluorescence on incubation with caspase-3 ([3]; 0 to 120 min): time-dependent increase in fluorescence
fluorescence enhancement with caspase-3 ([3]; 5 μM probe, 200 pM caspase-3): up to ten-fold fluorescence enhancement
fluorescence with caspase-3 pretreated with inhibitor ([3]; 10 μM caspase inhibitor): no fluorescence turn-on
fluorescence on incubation with caspase-7 ([4]; 0 to 120 min): time-dependent increase in fluorescence
fluorescence with caspase-7 pretreated with inhibitor ([4]; 10 μM caspase inhibitor): no fluorescence turn-on
solubility in water [5]: good solubility in water

C[Si]1(C)C(c2ccc(CN=[N+]=[N-])cc2)=C(c2ccccc2)C(c2ccccc2)=C1c1ccc(CN=[N+]=[N-])cc1 [BATPS, 1,1-dimethyl-2,5-bis[4-(azidomethyl)phenyl]-3,4-diphenylsilole]
average diameter of nanoaggregates in water (LLS) [5]: 103 nm

ClCc1ccc(C2=c3cc4c5c(c3Oc3c2cc2c6c3CCCN6CCC2)CCC[N+]=5CCC4)cc1.[Cl-] [MTR]
time over which fluorescence in treated cells is sustained / detectable [6]: 1 days

C[Si]1(C)C(c2ccc(Cn3cc(C[C@@H]4NC(=O)[C@@H](Cc5ccccc5)NC(=O)[C@H](CC(=O)O)NC(=O)CNC(=O)[C@H](CCCNC(=N)N)NC4=O)nn3)cc2)=C(c2ccccc2)C(c2ccccc2)=C1c1ccc(Cn2cc(C[C@@H]3NC(=O)[C@@H](Cc4ccccc4)NC(=O)[C@H](CC(=O)O)NC(=O)CNC(=O)[C@H](CCCNC(=N)N)NC3=O)nn2)cc1 [TPS-2cRGD]
fluorescence enhancement on incubation with integrin αvβ3 ([7]; 10 μM probe, integrin 0 to 100 μg mL^−1): up to a seven-fold fluorescence enhancement
limit of detection for integrin αvβ3 in solution ([7]; three times the standard deviation): 4 µg/mL
viability [8]: ~100%
change of PL intensity with other proteins [9]: very little change of PL intensity
average diameter of nanoaggregates in water (LLS) [5]: no detectable signal
solubility in water [5, 14]: good solubility in water
incubation time after which the probe is gradually internalized within cells [10]: > 25 min
fluorescent signal of live cells (CLSM) ([11]; 2 μM, 30 min, 4° C.): strong fluorescent signal
fluorescent signal after pre-treatment with free cyclic RGD peptide ([11]; 10 μM cyclic RGD peptide, then 2 μM probe): significantly reduced
fluorescent signal of live cells (CLSM) [12]: very weak fluorescence

E-TPE-2DEVD: stereoisomer of Asp-Glu-Val-Asp (DEVD) peptide-conjugated TPE probe (TPE-2DEVD)
fluorescence turn-on with caspase-3 ([13]; 10 μM probe, PIPES buffer, caspase-3 100 pM, 37° C.): strong fluorescence signals
rate of enzyme activated hydrolysis (HPLC) ([13]; recombinant caspase-3 in buffer): faster
solubility in water [5, 14]: good solubility in water
